Laboratory results from patent US20260200885A1, “BENZOPYRONE COMPOUNDS AS WELL AS PREPARATION METHOD THEREFOR AND USE THEREOF” (CHENGDU DI’AO JIUHONG PHARMACEUTICAL FACTORY, priority 2022, published 2026).
Where two headings read alike, the source gives them in different places.

Tests used:
A2780 cells = test: Determination of cell activity (CellTiter-Glo Luminescent Cell Viability Assay); format: cell-based; conditions: Homo sapiens
Procedure: To examine the effect of compounds on cell viability, ATP was directly quantified using the CellTiter-Glo Luminescent Cell Viability Assay (Promega) to determine the number of viable cells.
Cell density was selected based on optimal signal intensity and growth curve for the inoculation of A2780 cells. The cells were incubated at 37° C. and 5% C02 overnight. Cells were treated with blank group, DMSO group and compound group, respectively, at 37° C. and 5% C02 for 7 days. The prepared solutions were added to cell wells according to the instructions of CellTiter-Glo (Promega), and shaken at a speed of 400 g for 2 min. Then, the solutions were centrifuged at 1000 g for 2 min and incubated at rest for 30 min to ensure a complete reaction. […] readings were taken using a multi-label microplate reader (Perkin Elmer) to calculate IC50 values.

[1] = Pharmacokinetic assay in CD1 mice; format: in vivo; conditions: for half-life / AUC(0-inf) / AUC(0-t) / Cmax: mouse, plasma, po; for half-life: intragastric administration 5 mg/kg, Table I-3, read-out: T1/2 (h) for oral administration (converted); for F: bioavailability; for F / T1/2 / AUC(0-inf) / AUC(0-t): Table I-4; for maximum plasma concentration Cmax compared with IMT1B / plasma exposure AUC compared with IMT1B: comparison in words; for T1/2 / AUC(0-inf) / AUC(0-t) / Cmax: main pharmacokinetic parameters; for AUC(0-inf) / AUC(0-t) / Cmax: 5 mg/kg; for Cmax: Table I-4, read-out: Cmax
Procedure: pharmacokinetic assay of compounds was carried out in CD1 mice aged 6-8 weeks with IMT1B as a positive control. The compounds and the positive control were dissolved in 30% aqueous hydroxypropyl-β-cyclodextrin solution containing 25% PEG400 and administered via intravenous injection (1 mg/kg) or intragastric administration (5 mg/kg). Blood samples were collected at 0.033, 0.083, 0.25, 0.5, 1, 2, 4, 8, 24 h and 0.083, 0.25, 0.5, 1, 2, 4, 8, 24 h respectively after administration.
The concentration of the compounds in plasma samples was analyzed using the LC-MS/MS method. Pharmacokinetic calculations were performed using WinNonlin (Phoenix™, version 8.3) or other similar software. The following pharmacokinetic parameters were calculated from the plasma concentration vs. time data: for intravenous administration: T1/2, C0, AUClast, AUCinf, MRTinf, Cl, Vss, regression coefficient, etc.; for oral administration: T1/2, Cmax, Tmax, AUClast, AUCinf, bioavailability, etc. The above parameter data were statistically calculated and described using descriptive statistics such as mean value and standard deviation.

[2] = 168 h, A2780 cells, 7 days treatment, CellTiter-Glo, read-out: IC50

Structure (SMILES) | IC50 (A2780 cells; [2]) [µM] | also measured
C[C@@H](Oc1ccc2c(-c3ccc(F)cc3Cl)cc(=O)oc2c1)C(=O)c1ccc(C(=O)O)cc1 [Compound A1-1-9] | – | half-life [1]: 3.89 h
C[C@@H](Oc1ccc2c(-c3ccc(F)cc3Cl)cc(=O)oc2c1)C(=O)c1ccnc(C(=O)O)c1 [Compound A1-4-5] | – | half-life [1]: 9.73 h
COc1cccc(C(=O)C(C)Oc2ccc3c(-c4ccc(F)cc4Cl)cc(=O)oc3c2)c1 (stereo not shown) [Compound A-1-2-1-76] | 0.1 to 1 | –
CC(Oc1ccc2c(-c3ccc(F)cc3Cl)cc(=O)oc2c1)C(=O)c1cccc([N+](=O)[O-])c1 (stereo not shown) [Compound A-1-2-1-89] | 0.1 to 1 | –
CC(Oc1ccc2c(-c3ccccc3)cc(=O)oc2c1)C(=O)c1cccc(C(=O)O)c1 (stereo not shown) [Compound A-1-2-1-99] | 0.1 to 1 | –
Cc1cccc(-c2cc(=O)oc3cc(OC(C)C(=O)c4cccc(C(=O)O)c4)ccc23)c1 (stereo not shown) [Compound A-1-2-1-100] | 0.1 to 1 | –
CCc1ccccc1-c1cc(=O)oc2cc(OC(C)C(=O)c3cccc(C(=O)O)c3)ccc12 (stereo not shown) [Compound A-1-2-1-101] | 0.1 to 1 | –
C=Cc1ccccc1-c1cc(=O)oc2cc(OC(C)C(=O)c3cccc(C(=O)O)c3)ccc12 (stereo not shown) [Compound A-1-2-1-103] | 0.1 to 1 | –
CC(Oc1ccc2cc(-c3ccccc3)c(=O)oc2c1)C(=O)N1CCCC(C#N)C1 (stereo not shown) [Compound A-1-2-2-2] | > 1 | –
CC(Oc1ccc2c(C3CCCCC3)cc(=O)oc2c1)C(=O)c1cccc(C(=O)O)c1 (stereo not shown) [Compound A-1-2-6-2] | 0.1 to 1 | –
CC(Oc1ccc2c(-c3cccnc3)cc(=O)oc2c1)C(=O)N1CCCC(C#N)C1 (stereo not shown) [Compound A-1-2-6-23] | > 1 | –
CC(Oc1ccc2c(-c3ccncc3)cc(=O)oc2c1)C(=O)N1CCCC(C#N)C1 (stereo not shown) [Compound A-1-2-6-24] | > 1 | –
CC(Oc1ccc2c(-c3ccc(F)cc3Cl)cc(=O)oc2c1)C(=O)C1CCN(C)CC1 (stereo not shown) [Compound A-1-7-1-1] | 0.1 to 1 | –
CC(Oc1ccc2c(-c3ccc(F)cc3Cl)cc(=O)oc2c1)C(=O)C1CCN(C2CC2)CC1 (stereo not shown) [Compound A-1-7-1-2] | 0.1 to 1 | half-life [1]: 3.78 h
CC(Oc1ccc2c(-c3ccc(F)cc3Cl)cc(=O)oc2c1)C(=O)C1CCN(CCO)CC1 (stereo not shown) [Compound A-1-7-1-4] | 0.1 to 1 | –
CC(Oc1ccc2c(-c3ccc(F)cc3Cl)cc(=O)oc2c1)C(=O)[C@H]1CCCNC1 (stereo partly shown) [Compound A-1-8-1-1] | 0.1 to 1 | –
CC(Oc1ccc2c(-c3ccc(F)cc3Cl)cc(=O)oc2c1)C(=O)[C@@H]1CCCNC1 (stereo partly shown) [Compound A-1-8-1-2] | 0.1 to 1 | –
CC(Oc1ccc2c(-c3ccc(F)cc3Cl)cc(=O)oc2c1)C(=O)c1ccc[nH]1 (stereo not shown) [Compound A-1-10-1-4] | 0.1 to 1 | half-life [1]: 3.76 h
CC(Oc1ccc2c(-c3ccc(F)cc3Cl)cc(=O)oc2c1)C(=O)C1CCNC1 (stereo not shown) [Compound A-1-10-1-35] | 0.1 to 1 | –
CC(Oc1ccc2c(-c3ccc(F)cc3Cl)cc(=O)oc2c1)C(=O)c1ccc2c(c1)OCO2 (stereo not shown) [Compound A-1-11-1-10] | 0.1 to 1 | –
CC(Oc1ccc2c(-c3ccc(F)cc3Cl)cc(=O)oc2c1)C(=O)c1ccc2c(c1)OCCO2 (stereo not shown) [Compound A-1-11-1-13] | 0.1 to 1 | –
CC(Oc1ccc2c(-c3ccc(F)cc3Cl)cc(=O)oc2c1)C(=O)C12CC3CC(CC(C3)C1)C2 (stereo not shown) [Compound A-1-12-1-27] | 0.1 to 1 | –
CC(Oc1ccc2c(-c3ccc(F)cc3Cl)cc(=O)oc2c1)C(=O)C1CCN(CC(=O)O)CC1 (stereo not drawn) [α-12] | – | IC50 (A2780 cells; A2780, 168 h): 0.1 to 1 µM

Now from value to compound, other results behind:

IC50 (A2780 cells; [2]) [µM] | Structure (SMILES) | also measured
0.1 to 1 | C[C@@H](Oc1ccc2c(-c3ccc(F)cc3Cl)cc(=O)oc2c1)C(=O)c1ccccc1C(=O)O [Compound A1-1-1] | –
0.1 to 1 | C[C@H](Oc1ccc2c(-c3ccc(F)cc3Cl)cc(=O)oc2c1)C(=O)c1ccccc1C(=O)O [Compound A2-1-1] | half-life [1]: 3.54 h
0.02 to 0.1 | C[C@H](Oc1ccc2c(-c3ccc(F)cc3Cl)cc(=O)oc2c1)C(=O)c1cccc(C(=O)O)c1 [Compound A2-1-5] | F [1]: 137.555%; maximum plasma concentration Cmax compared with IMT1B [1]: significantly superior to IMT1B; plasma exposure AUC compared with IMT1B [1]: significantly superior to IMT1B; T1/2 [1]: 3.985 h; AUC(0-inf) [1]: 9870 ng·h/mL; AUC(0-t) [1]: 9740 ng·h/mL; Cmax [1]: 1060 ng/mL; half-life [1]: 3.98 h
0.1 to 1 | CC(Oc1ccc2c(-c3ccccc3F)cc(=O)oc2c1)C(=O)c1cccc(C(=O)O)c1 (stereo not shown) [Compound A-1-2-1-1] | –
0.02 to 0.1 | CC(Oc1ccc2c(-c3ccccc3Cl)cc(=O)oc2c1)C(=O)c1cccc(C(=O)O)c1 (stereo not shown) [Compound A-1-2-1-2] | –
0.02 to 0.1 | CC(Oc1ccc2c(-c3ccccc3Br)cc(=O)oc2c1)C(=O)c1cccc(C(=O)O)c1 (stereo not shown) [Compound A-1-2-1-3] | –
0.1 to 1 | COc1ccccc1-c1cc(=O)oc2cc(OC(C)C(=O)c3cccc(C(=O)O)c3)ccc12 (stereo not shown) [Compound A-1-2-1-8] | –
0.02 to 0.1 | CNC(=O)c1cccc(C(=O)C(C)Oc2ccc3c(-c4ccc(F)cc4Cl)cc(=O)oc3c2)c1 (stereo not shown) [Compound A-1-2-1-35] | –
0.02 to 0.1 | CC(Oc1ccc2c(-c3ccc(F)cc3Cl)cc(=O)oc2c1)C(=O)c1cccc(C(N)=O)c1 (stereo not shown) [Compound A-1-2-1-36] | –
0.02 to 0.1 | CC(Oc1ccc2c(-c3ccc(F)cc3Cl)cc(=O)oc2c1)C(=O)c1cccc(S(N)(=O)=O)c1 (stereo not shown) [Compound A-1-2-1-40] | half-life [1]: 3.57 h
0.02 to 0.1 | CC(Oc1ccc2c(-c3ccc(F)cc3Cl)cc(=O)oc2c1)C(=O)c1ccccc1 (stereo not shown) [Compound A-1-2-1-70] | –
0.02 to 0.1 | CC(Oc1ccc2c(-c3ccc(F)cc3Cl)cc(=O)oc2c1)C(=O)c1cccc(F)c1 (stereo not shown) [Compound A-1-2-1-71] | –
0.1 to 1 | CC(Oc1ccc2c(-c3ccc(F)cc3Cl)cc(=O)oc2c1)C(=O)c1cccc(Cl)c1 (stereo not shown) [Compound A-1-2-1-72] | –
0.1 to 1 | CC(Oc1ccc2c(-c3ccc(F)cc3Cl)cc(=O)oc2c1)C(=O)c1cccc(Br)c1 (stereo not shown) [Compound A-1-2-1-73] | –
0.02 to 0.1 | Cc1cccc(C(=O)C(C)Oc2ccc3c(-c4ccc(F)cc4Cl)cc(=O)oc3c2)c1 (stereo not shown) [Compound A-1-2-1-75] | –
< 0.02 | CC(Oc1ccc2c(-c3ccc(F)cc3Cl)cc(=O)oc2c1)C(=O)c1ccc(N)cc1 (stereo not shown) [Compound A-1-2-1-78] | –

IC50 (A2780 cells; [2]) [µM] | Structure (SMILES) | also measured
0.02 to 0.1 | CNc1ccc(C(=O)C(C)Oc2ccc3c(-c4ccc(F)cc4Cl)cc(=O)oc3c2)cc1 (stereo not shown) [Compound A-1-2-1-79] | –
0.02 to 0.1 | CC(Oc1ccc2c(-c3ccc(F)cc3Cl)cc(=O)oc2c1)C(=O)c1ccc(N(C)C)cc1 (stereo not shown) [Compound A-1-2-1-80] | –
< 0.02 | CC(Oc1ccc2c(-c3ccc(F)cc3Cl)cc(=O)oc2c1)C(=O)c1ccc(O)cc1 (stereo not shown) [Compound A-1-2-1-82] | –
< 0.02 | CC(=O)Oc1ccc(C(=O)C(C)Oc2ccc3c(-c4ccc(F)cc4Cl)cc(=O)oc3c2)cc1 (stereo not shown) [Compound A-1-2-1-83] | –
< 0.02 | CC(=O)Nc1ccc(C(=O)C(C)Oc2ccc3c(-c4ccc(F)cc4Cl)cc(=O)oc3c2)cc1 (stereo not shown) [Compound A-1-2-1-84] | –
0.02 to 0.1 | CC(Oc1ccc2c(-c3ccc(F)cc3Cl)cc(=O)oc2c1)C(=O)c1cccc(C#N)c1 (stereo not shown) [Compound A-1-2-1-90] | –
0.02 to 0.1 | CC(Oc1ccc2c(-c3ccc(F)cc3Cl)cc(=O)oc2c1)C(=O)c1cc(F)cc(C(=O)O)c1 (stereo not shown) [Compound A-1-2-1-93] | F [1]: 102.733%; maximum plasma concentration Cmax compared with IMT1B [1]: significantly superior to IMT1B; plasma exposure AUC compared with IMT1B [1]: significantly superior to IMT1B; T1/2 [1]: 11.706 h; AUC(0-inf) [1]: 211000 ng·h/mL; AUC(0-t) [1]: 155000 ng·h/mL; Cmax [1]: 8960 ng/mL; half-life [1]: 11.7 h
< 0.02 | CC(Oc1ccc2c(-c3ccc(F)cc3Cl)cc(=O)oc2c1)C(=O)c1cc(F)c(O)c(F)c1 (stereo not shown) [Compound A-1-2-1-94] | half-life [1]: 4.57 h
< 0.02 | Cc1ccccc1-c1cc(=O)oc2cc(OC(C)C(=O)c3cccc(C(=O)O)c3)ccc12 (stereo not shown) [Compound A-1-2-1-98] | –
< 0.02 | CC(=O)NCCc1ccc(C(=O)C(C)Oc2ccc3c(-c4ccc(F)cc4Cl)cc(=O)oc3c2)cc1 (stereo not shown) [Compound A-1-2-1-104] | –
0.02 to 0.1 | CC(Oc1ccc2c(-c3ccc(F)cc3Cl)cc(=O)oc2c1)C(=O)C1CCN(C(=O)C(Cl)Cl)CC1 (stereo not shown) [Compound A-1-7-1-3] | –
< 0.02 | CC(Oc1ccc2c(-c3ccc(F)cc3Cl)cc(=O)oc2c1)C(=O)c1cc[nH]c1 (stereo not shown) [Compound A-1-10-1-5] | –
0.02 to 0.1 | CC(Oc1ccc2c(-c3ccc(F)cc3Cl)cc(=O)oc2c1)C(=O)c1ccoc1 (stereo not shown) [Compound A-1-10-1-6] | –
0.02 to 0.1 | CC(Oc1ccc2c(-c3ccc(F)cc3Cl)cc(=O)oc2c1)C(=O)c1ccsc1 (stereo not shown) [Compound A-1-10-1-7] | –
< 0.02 | CC(Oc1ccc2c(-c3ccc(F)cc3Cl)cc(=O)oc2c1)C(=O)C1CCOCC1 (stereo not shown) [Compound A-1-10-1-39] | –
0.02 to 0.1 | CC(Oc1ccc2c(-c3ccc(F)cc3Cl)cc(=O)oc2c1)C(=O)c1ccc2[nH]ccc2c1 (stereo not shown) [Compound A-1-11-1-1] | –
